In patent US20260102359A1, “COMBINATION TREATMENT OF DERMAL AND TRANSDERMAL FIBROTIC DISEASES, DISORDERS AND ASSOCIATED PAIN AND INFLAMMATION” (ERESINA, LLC, priority 2022, published 2026):
Where a name gives a salt, the structure may show the parent alone.

system: hDMFa myofibroblast cells

`CCCc1nn(C)c2c(=O)[nH]c(-c3cc(S(=O)(=O)N4CCN(C)CC4)ccc3OCC)nc12.CS(=O)(=O)O` [Cmpd 862, Sildenafil mesylate] was tested. Which “Compound Myofibroblast Cytotoxicity Activity” value did it give?
Its value is “++”.

Which “Compound Myofibroblast Cytotoxicity Activity” value does the source give for `CC(C)(C)C(=O)Oc1ccc(S(=O)(=O)Nc2ccccc2C(=O)NCC(=O)O)cc1` [Cmpd 866, Sivelestat (ONO-5046)] here?
The value was “++”.

Which “Compound Myofibroblast Cytotoxicity Activity” value does the source give for `O=C([O-])c1ccccc1.[Na+]` [Cmpd 870, Sodium benzoate] here?
Its value is “++++”.

With `CCCCCCCCCCCCOS(=O)(=O)O` [Cmpd 871, Sodium dodecyl sulfate] as the compound, how does the “Compound Myofibroblast Cytotoxicity Activity” value read?
Its value is “+++++”.

For `O=P([O-])([O-])O.[Na+].[Na+]` [Cmpd 874, Sodium phosphate dibasic], which “Compound Myofibroblast Cytotoxicity Activity” value is on record?
The value was “++++”.

Which “Compound Myofibroblast Cytotoxicity Activity” value does the source give for `C[C@H](CCC(=O)NCCS(=O)(=O)[O-])[C@H]1CC[C@H]2[C@@H]3[C@@H](O)C[C@@H]4C[C@H](O)CC[C@]4(C)[C@H]3CC[C@]12C.[Na+]` [Cmpd 877, Sodium Tauroursodeoxycholate (TUDC)] here?
Its value is “++”.

With `C/C=C/C=C/C(=O)O` [Cmpd 881, Sorbic acid] as the compound, how does the “Compound Myofibroblast Cytotoxicity Activity” value read?
The value was “++”.

`OC[C@@H](O)[C@@H](O)[C@H](O)[C@@H](O)CO` [Cmpd 882, Sorbitol] was tested. Which “Compound Myofibroblast Cytotoxicity Activity” value did it give?
The value was “++++”.

Which “Compound Myofibroblast Cytotoxicity Activity” value does the source give for `CC(C)NCC(O)c1ccc(NS(C)(=O)=O)cc1` (centres unmarked) [Cmpd 883, Sotalol hydrochloride] here?
The value was “+++”.

For `CN1CCN(c2nc(C3=C(c4c[nH]c5ccccc45)C(=O)NC3=O)c3ccccc3n2)CC1` [Cmpd 884, Sotrastaurin (AEB071)], which “Compound Myofibroblast Cytotoxicity Activity” value is on record?
The value was “++”.

With `CN[C@@H]1[C@H](O)[C@H](NC)[C@H]2O[C@@]3(O)C(=O)C[C@@H](C)O[C@H]3O[C@@H]2[C@H]1O` [Cmpd 885, Spectinomycin (hydrochloride hydrate)] as the compound, how does the “Compound Myofibroblast Cytotoxicity Activity” value read?
Its value is “+++”.

For `NCCCNCCCCNCCCN` [Cmpd 887, Spermine], which “Compound Myofibroblast Cytotoxicity Activity” value is on record?
Its value is “++”.

For `CCCCCCCCCCCCCCCCCC(=O)O` [Cmpd 889, Stearic Acid], which “Compound Myofibroblast Cytotoxicity Activity” value is on record?
Its value is “+++”.

With `O=C(O)CCC(=O)Nc1ccc(S(=O)(=O)Nc2nccs2)cc1` [Cmpd 891, Succinylsulfathiazole] as the compound, how does the “Compound Myofibroblast Cytotoxicity Activity” value read?
Its value is “++”.

How did the “Compound Myofibroblast Cytotoxicity Activity” value turn out when `Nc1ccc(S(=O)(=O)NC(=O)c2ccccc2)cc1` [Cmpd 893, Sulfabenzamide] was run?
Its value is “++”.

Which “Compound Myofibroblast Cytotoxicity Activity” value does the source give for `CC(=O)NS(=O)(=O)c1ccc(N)cc1` [Cmpd 894, Sulfacetamide sodium salt hydrate] here?
The value was “++”.

`Cc1ccnc(NS(=O)(=O)c2ccc(N)cc2)n1` [Cmpd 895, Sulfamerazine] was tested. Which “Compound Myofibroblast Cytotoxicity Activity” value did it give?
Its value is “+++”.

Which “Compound Myofibroblast Cytotoxicity Activity” value does the source give for `Cc1nnc(NS(=O)(=O)c2ccc(N)cc2)s1` [Cmpd 896, Sulfamethizole] here?
Its value is “++++”.

How did the “Compound Myofibroblast Cytotoxicity Activity” value turn out when `Nc1ccc(S(N)(=O)=O)cc1` [Cmpd 898, Sulfanilamide] was run?
The value was “++++”.

How did the “Compound Myofibroblast Cytotoxicity Activity” value turn out when `Nc1ccc(S(=O)(=O)Nc2ccnn2-c2ccccc2)cc1` [Cmpd 899, Sulfaphenazole] was run?
Its value is “+++”.

`Nc1ccc(S(=O)(=O)Nc2nccs2)cc1` [Cmpd 900, Sulfathiazole] was tested. Which “Compound Myofibroblast Cytotoxicity Activity” value did it give?
The value was “++++”.

`COc1cc(O)c(C(=O)c2ccccc2)cc1S(=O)(=O)O` [Cmpd 901, Sulisobenzone] was tested. Which “Compound Myofibroblast Cytotoxicity Activity” value did it give?
The value was “++”.

With `CC1(C)S[C@@H]2[C@H](NC(=O)[C@H](N)c3ccccc3)C(=O)N2[C@H]1C(=O)OCOC(=O)[C@@H]1N2C(=O)C[C@H]2S(=O)(=O)C1(C)C` [Cmpd 902, Sultamicillin] as the compound, how does the “Compound Myofibroblast Cytotoxicity Activity” value read?
Its value is “++”.

`Nc1c2c(nc3ccccc13)CCCC2` [Cmpd 906, Tacrine hydrochloride] was tested. Which “Compound Myofibroblast Cytotoxicity Activity” value did it give?
Its value is “++++”.

How did the “Compound Myofibroblast Cytotoxicity Activity” value turn out when `CC/C(=C(\c1ccccc1)c1ccc(OCCN(C)C)cc1)c1ccccc1` [Cmpd 911, Tamoxifen Citrate] was run?
The value was “+++”.

With `Cc1coc2c1C(=O)C(=O)c1c-2ccc2c(C)cccc12` [Cmpd 912, Tanshinone I] as the compound, how does the “Compound Myofibroblast Cytotoxicity Activity” value read?
Its value is “+++++”.

For `Cc1coc2c1C(=O)C(=O)c1c-2ccc2c1CCCC2(C)C` [Cmpd 913, Tanshinone IIA], which “Compound Myofibroblast Cytotoxicity Activity” value is on record?
The value was “+++++”.

With `Cc1c(S(=O)(=O)[O-])oc2c1C(=O)C(=O)c1c-2ccc2c1CCCC2(C)C.[Na+]` [Cmpd 914, Tanshinone IIA---sulfonic sodium] as the compound, how does the “Compound Myofibroblast Cytotoxicity Activity” value read?
The value was “++”.

How did the “Compound Myofibroblast Cytotoxicity Activity” value turn out when `Cn1nnc(-c2ccc(-c3ccc(N4C[C@H](CO)OC4=O)cc3F)cn2)n1` [Cmpd 920, Tedizolid HCl] was run?
Its value is “++++”.

How did the “Compound Myofibroblast Cytotoxicity Activity” value turn out when `CO[C@H]1C[C@@H]2CC[C@@H](C)[C@@](O)(O2)C(=O)C(=O)N2CCCC[C@H]2C(=O)O[C@H]([C@H](C)C[C@@H]2CC[C@@H](OC(=O)C(C)(CO)CO)[C@H](OC)C2)CC(=O)[C@H](C)/C=C(\C)[C@@H](O)[C@@H](OC)C(=O)[C@H](C)C[C@H](C)/C=C/C=C/C=C/1C` [Cmpd 924, Temsirolimus (CCl-779, NSC 683864)] was run?
Its value is “+++++”.

`COc1cc([C@@H]2c3cc4c(cc3[C@@H](O[C@@H]3O[C@@H]5CO[C@@H](c6cccs6)O[C@H]5[C@H](O)[C@H]3O)[C@H]3COC(=O)[C@H]23)OCO4)cc(OC)c1O` [Cmpd 925, Teniposide] was tested. Which “Compound Myofibroblast Cytotoxicity Activity” value did it give?
Its value is “++”.

`CN(C/C=C/C#CC(C)(C)C)Cc1cccc2ccccc12` [Cmpd 926, Terbinafine] was tested. Which “Compound Myofibroblast Cytotoxicity Activity” value did it give?
Its value is “++”.

Which “Compound Myofibroblast Cytotoxicity Activity” value does the source give for `CN(C/C=C/C#CC(C)(C)C)Cc1cccc2ccccc12` [Cmpd 927, Terbinafine HCl] here?
The value was “++++”.

`CC(C)N1CCN(c2ccc(OCC3COC(Cn4cncn4)(c4ccc(Cl)cc4Cl)O3)cc2)CC1` (centres unmarked) [Cmpd 928, Terconazole] was tested. Which “Compound Myofibroblast Cytotoxicity Activity” value did it give?
The value was “++”.

`O=C(O)c1ccc(C(=O)O)cc1` [Cmpd 929, Terephthalic acid] was tested. Which “Compound Myofibroblast Cytotoxicity Activity” value did it give?
The value was “++”.

With `CC1=CCC(O)(C(C)C)CC1` (centres unmarked) [Cmpd 931, Terpinen-4-ol] as the compound, how does the “Compound Myofibroblast Cytotoxicity Activity” value read?
The value was “++”.

How did the “Compound Myofibroblast Cytotoxicity Activity” value turn out when `COc1cc2c(cc1OC)C1CC(=O)C(CC(C)C)CN1CC2` (centres unmarked) [Cmpd 933, Tetrabenazine] was run?
Its value is “+++”.

For `COc1ccc2cc1Oc1ccc(cc1)C[C@H]1c3cc(c(OC)cc3CCN1C)Oc1c(OC)c(OC)cc3c1[C@H](C2)N(C)CC3` [Cmpd 936, Tetrandrine], which “Compound Myofibroblast Cytotoxicity Activity” value is on record?
The value was “++”.

With `Cc1cnc(Nc2ccc(OCCN3CCCC3)cc2)nc1Nc1cccc(S(=O)(=O)NC(C)(C)C)c1` [Cmpd 937, TG101348 (SAR302503)] as the compound, how does the “Compound Myofibroblast Cytotoxicity Activity” value read?
The value was “++++”.

For `Cc1ncc(C[n+]2csc(CCO)c2C)c(N)n1.Cl.[Cl-]` [Cmpd 939, Thiamine HCl (Vitamin B1)], which “Compound Myofibroblast Cytotoxicity Activity” value is on record?
The value was “++”.

How did the “Compound Myofibroblast Cytotoxicity Activity” value turn out when `CSc1ccc2c(c1)N(CCC1CCCCN1C)c1ccccc1S2` (centres unmarked) [Cmpd 940, Thioridazine HCl] was run?
The value was “++++”.

`Cc1cn([C@H]2C[C@H](O)[C@@H](CO)O2)c(=O)[nH]c1=O` [Cmpd 943, Thymidine] was tested. Which “Compound Myofibroblast Cytotoxicity Activity” value did it give?
Its value is “++”.

`O=c1sn(-c2cccc3ccccc23)c(=O)n1Cc1ccccc1` [Cmpd 946, Tideglusib] was tested. Which “Compound Myofibroblast Cytotoxicity Activity” value did it give?
Its value is “++”.

With `Clc1ccc(C(Cn2ccnc2)OCc2ccsc2Cl)c(Cl)c1` (centres unmarked) [Cmpd 947, Tioconazole] as the compound, how does the “Compound Myofibroblast Cytotoxicity Activity” value read?
Its value is “+++”.

For `Nc1n[n+]([O-])c2ccccc2[n+]1[O-]` [Cmpd 948, Tirapazamine], which “Compound Myofibroblast Cytotoxicity Activity” value is on record?
Its value is “++++”.

How did the “Compound Myofibroblast Cytotoxicity Activity” value turn out when `O=C(O)Cc1cc(I)c(Oc2ccc(O)c(I)c2)c(I)c1` [Cmpd 949, Tiratricol] was run?
Its value is “+++”.

Which “Compound Myofibroblast Cytotoxicity Activity” value does the source give for `O=C1NC(=O)[C@@H](c2cn3c4c(cccc24)CCC3)[C@@H]1c1c[nH]c2ccccc12` [Cmpd 950, Tivantinib (ARQ 197)] here?
The value was “++”.

For `Cc1ccc(S(=O)(=O)NC(=O)NN2CCCCCC2)cc1` [Cmpd 953, Tolazamide], which “Compound Myofibroblast Cytotoxicity Activity” value is on record?
Its value is “++++”.

With `Cc1c(Cl)cccc1Nc1ccccc1C(=O)O` [Cmpd 955, Tolfenamic Acid] as the compound, how does the “Compound Myofibroblast Cytotoxicity Activity” value read?
Its value is “++”.

For `Cc1cccc(N(C)C(=S)Oc2ccc3ccccc3c2)c1` [Cmpd 956, Tolnaftate], which “Compound Myofibroblast Cytotoxicity Activity” value is on record?
The value was “++++”.

`CN(C)CCOc1ccc(/C(=C(/CCCl)c2ccccc2)c2ccccc2)cc1` [Cmpd 959, Toremifene Citrate] was tested. Which “Compound Myofibroblast Cytotoxicity Activity” value did it give?
Its value is “+++”.

How did the “Compound Myofibroblast Cytotoxicity Activity” value turn out when `NCCCS(=O)(=O)O` [Cmpd 961, Tramiprosate] was run?
Its value is “+++++”.

With `C/C=C/c1ccc(OC)cc1` [Cmpd 963, Trans-Anethole] as the compound, how does the “Compound Myofibroblast Cytotoxicity Activity” value read?
The value was “++”.

For `Cl.N[C@@H]1C[C@H]1c1ccccc1` [Cmpd 964, Tranylcypromine hydrochloride], which “Compound Myofibroblast Cytotoxicity Activity” value is on record?
The value was “++++”.

For `CC1(C)CC(=O)CC(C)(C)N1` [Cmpd 967, Triacetonamine], which “Compound Myofibroblast Cytotoxicity Activity” value is on record?
Its value is “++”.

With `N[C@@H](Cc1cc(I)c(Oc2ccc(O)c(I)c2)c(I)c1)C(=O)O` [Cmpd 972, Triiodothyronine] as the compound, how does the “Compound Myofibroblast Cytotoxicity Activity” value read?
The value was “++”.

For `C[C@]12CC[C@H]3[C@@H](CC[C@@]45O[C@@H]4C(O)=C(C#N)C[C@]35C)[C@@H]1CC[C@@H]2O` [Cmpd 973, Trilostane], which “Compound Myofibroblast Cytotoxicity Activity” value is on record?
The value was “++”.

How did the “Compound Myofibroblast Cytotoxicity Activity” value turn out when `COc1cc(C(=O)NCc2ccc(OCCN(C)C)cc2)cc(OC)c1OC.Cl` [Cmpd 974, Trimethobenzamide hydrochloride] was run?
Its value is “++”.

How did the “Compound Myofibroblast Cytotoxicity Activity” value turn out when `CC(CN(C)C)CN1c2ccccc2CCc2ccccc21.O=C(O)/C=C\C(=O)O` (centres unmarked) [Cmpd 975, Trimipramine (maleate)] was run?
The value was “++”.

How did the “Compound Myofibroblast Cytotoxicity Activity” value turn out when `Cc1c(C)c2c(c(C)c1O)CCC(C)(COc1ccc(CC3SC(=O)NC3=O)cc1)O2` (centres unmarked) [Cmpd 976, Troglitazone] was run?
Its value is “+++”.

`Cc1[nH]c(/C=C2\C(=O)Nc3ccccc32)c(C)c1CCC(=O)O` [Cmpd 979, TSU-68 (SU6668, Orantinib)] was tested. Which “Compound Myofibroblast Cytotoxicity Activity” value did it give?
Its value is “++”.

How did the “Compound Myofibroblast Cytotoxicity Activity” value turn out when `NCCc1ccc(O)cc1` [Cmpd 981, Tyramine] was run?
The value was “++”.

For `C[C@H](CCC(=O)O)[C@H]1CC[C@H]2[C@@H]3[C@@H](O)C[C@@H]4C[C@H](O)CC[C@]4(C)[C@H]3CC[C@]12C` [Cmpd 988, Ursodeoxycholic Acid], which “Compound Myofibroblast Cytotoxicity Activity” value is on record?
Its value is “+”.

With `O=c1ccn([C@@H]2O[C@H](COP(=O)([O-])OP(=O)([O-])OP(=O)([O-])O)[C@@H](O)[C@H]2O)c(=O)[nH]1.[Na+].[Na+].[Na+]` [Cmpd 990, UTP, Trisodium Salt] as the compound, how does the “Compound Myofibroblast Cytotoxicity Activity” value read?
Its value is “++”.

For `CCCC(CCC)C(=O)O` [Cmpd 993, Valproic acid], which “Compound Myofibroblast Cytotoxicity Activity” value is on record?
Its value is “+++”.
